Read-outs that look alike come from different tables or passages of the source. Bridge positions count the residues as written; N and C are the ends. Peptide text beside a SMILES is read from it.
Test system: Escherichia coli W3110
Type: cell-based
Conditions: for Ec W3110 MIC MH: E. coli W3110, MH medium; for Ec W3110 MIC RPMI: E. coli W3110, RPMI medium

SMILES	W3110 MIC (W3110) [µg/mL]	Ec W3110 MIC MH [µg/mL]	Ec W3110 MIC RPMI [µg/mL]	W3110 MIC MH (E. coli W3110, standard Mueller-Hinton broth, 37°C, 18-24 h, median of n=3) [µg/mL]	W3110 MIC RPMI (W3110) [µg/mL]	W3110 MIC MH (W3110) [µg/mL]
CC(C)C[C@@H]1NC(=O)[C@H](CCC(=O)O)NC(=O)[C@H](CC(C)C)NC(=O)[C@H](CCCCN)NC(=O)[C@H](CC(C)C)NC(=O)[C@H](CCCNC(=N)N)NC(=O)[C@H](CCCNC(=N)N)NC(=O)CNC(=O)[C@H](CCCNC(=N)N)NC(=O)[C@H](CC(=O)O)NC(=O)[C@H](CC(=O)O)NC(=O)[C@H](C(C)C)NC(=O)[C@H](CC(N)=O)NC(=O)[C@H](C(C)C)NC(=O)[C@H](CCCCN)NC(=O)[C@H](C(C)C)NC(=O)[C@H](CCCNC(=N)N)NC(=O)[C@@H](N)CSSC[C@@H](C(=O)O)NC(=O)[C@H](CCC(N)=O)NC1=O [SyRC-15] (H-CRVKVNVDDRGRRLKLELQC-OH; disulfide 1-20)	>256					
CC[C@H](C)[C@@H]1NC(=O)[C@H](CCCNC(=N)N)NC(=O)[C@H](C(C)C)NC(=O)[C@H](CCCNC(=N)N)NC(=O)[C@@H](N)CSSC[C@@H](C(=O)O)NC(=O)[C@H](CCC(=O)O)NC(=O)[C@H](C(C)C)NC(=O)[C@H](CCC(N)=O)NC(=O)[C@H](CC(C)C)NC(=O)[C@H](CCCCN)NC(=O)[C@H](CC(C)C)NC(=O)[C@H](CCCNC(=N)N)NC(=O)CNC(=O)[C@H](CCCNC(=N)N)NC(=O)[C@H](CCCNC(=N)N)NC(=O)[C@H](CC(=O)O)NC(=O)[C@H](CC(=O)O)NC(=O)[C@H](C(C)C)NC(=O)[C@H](CC(N)=O)NC1=O [SyRC-1] (H-CRVRINVDDRRGRLKLQVEC-OH; disulfide 1-20)	>256					
CC[C@H](C)[C@@H]1NC(=O)[C@H](CCCNC(=N)N)NC(=O)[C@@H](N)CSSC[C@@H](C(=O)O)NC(=O)[C@H](CCC(N)=O)NC(=O)[C@H](C(C)C)NC(=O)[C@H](CCC(N)=O)NC(=O)[C@H](CC(C)C)NC(=O)[C@H](CCCNC(=N)N)NC(=O)[C@H](C(C)C)NC(=O)[C@H](CCCNC(=N)N)NC(=O)[C@H](CCCNC(=N)N)NC(=O)[C@H](CCCNC(=N)N)NC(=O)[C@H](CCCNC(=N)N)NC(=O)[C@H](CC(N)=O)NC(=O)[C@H](CC(N)=O)NC(=O)[C@H](C(C)C)NC(=O)[C@H](CC(=O)O)NC(=O)[C@H](C(C)C)NC(=O)[C@H](CCCCN)NC1=O [SySA-1] (H-CRIKVDVNNRRRRVRLQVQC-OH; disulfide 1-20; N-terminus and C-terminus assumed)		128	64	128	64	
CC(C)C[C@@H]1NC(=O)[C@H](CCCNC(=N)N)NC(=O)[C@H](CCCNC(=N)N)NC(=O)[C@H](CCCNC(=N)N)NC(=O)CNC(=O)[C@H](CC(N)=O)NC(=O)[C@H](CC(N)=O)NC(=O)[C@H](CC(C)C)NC(=O)[C@H](CCCNC(=N)N)NC(=O)[C@H](C(C)C)NC(=O)[C@H](CCCNC(=N)N)NC(=O)[C@H](CC(C)C)NC(=O)[C@@H](N)CSSC[C@@H](C(=O)O)NC(=O)[C@H](C(C)C)NC(=O)[C@H](CCC(N)=O)NC(=O)[C@H](CC(C)C)NC(=O)[C@H](CO)NC(=O)[C@H](C(C)C)NC(=O)[C@H](CCCCN)NC1=O [SySA-71] (H-CLRVRLNNGRRRLKVSLQVC-OH; disulfide 1-20; N-terminus and C-terminus assumed)		16	32		32	16
CC[C@H](C)[C@@H]1NC(=O)[C@H](CCCCN)NC(=O)[C@H](CC(C)C)NC(=O)CNC(=O)[C@H](CCCNC(=N)N)NC(=O)[C@H](CCCNC(=N)N)NC(=O)[C@H](CCCNC(=N)N)NC(=O)[C@H](CC(N)=O)NC(=O)[C@H](CC(N)=O)NC(=O)[C@H](CC(C)C)NC(=O)[C@H](CCCNC(=N)N)NC(=O)[C@H](C(C)C)NC(=O)[C@H](CCCNC(=N)N)NC(=O)[C@H](C(C)C)NC(=O)[C@@H](N)CSSC[C@@H](C(=O)O)NC(=O)[C@H](C(C)C)NC(=O)[C@H](CCC(N)=O)NC(=O)[C@H](CC(C)C)NC(=O)[C@H]([C@@H](C)O)NC1=O [SySA-88] (H-CVRVRLNNRRRGLKITLQVC-OH; disulfide 1-20; N-terminus and C-terminus assumed)		32	8		8	32

Reference: PMC9833666, “Designing and identifying β-hairpin peptide macrocycles with antibiotic potential” (Science Advances, 2023)
